Test results published in patent US10722530B2, “Methods of diagnosing and treating cancer” (CASE WESTERN RESERVE UNIVERSITY, priority 2016, dated 2020).

What was measured:
A2780 = assay: Clonogenic survival assay; format: cell-based; conditions: Homo sapiens; A2780 (p53 wt), 24 h treatment, colonies after at least 10 days
Description: (§2) Cancer cells (200-300 cells/well) were seeded in 6-well culture dishes and allowed to adhere overnight. For 5-FdU, cells were treated for 24 h, then gently washed with PBS, and incubated with fresh media for at least 10 days to allow individual colonies to form. […] After 10-18 days, the plates were stained with methylene blue. Colonies containing ≥50 cells were counted. The percentage of survival was determined relative to untreated control averaged over 3 independent experiments.

A375 = assay: Clonogenic survival assay; format: cell-based; conditions: Homo sapiens, A-375; A375 (p53 wt), 24 h treatment, colonies after at least 10 days
Description: as §2

DLD1 cells [1] = assay: AP site detection assay (genomic uracil and 5-FU); format: cell-based, human; conditions: for levels of AP sites: 0-200 nM 5-FdU 48 h
Description: The amount of cellular AP sites was assessed as we previously described by using a NIR cyanine-based AP site probe. […] After the reaction, AP site probe with a final concentration of 25 μM was added and incubated at 37° C. for 1 h. Following incubation, extracted DNA was precipitated, and the supernatant was discarded. DNA pellets were resuspended in H2O, and DNA concentrations were measured and adjusted. The fluorescence intensities of each sample were analyzed with 760 nm excitation and emission scan of 790-847 nm.

HCT116 p53 KO cells = assay: Flow cytometric assay of apoptosis (Annexin V/PI); format: cell-based, human; conditions: 25 nM 5-FdU 24 h
Description: (§1) Cells were seeded in 6-well tissue culture plates (1.5×10^5 cells/well) and allowed to attach overnight. Cells were then treated with 25 nM 5-FdU for 24 h, washed twice with PBS, replenished with drug-free medium at 48, 72, and 96 h. After recovery, the cells floating in the medium were collected. The adherent cells were trypsinized, pelleted, washed in ice-cold PBS, and resuspended in 1× Binding Buffer according to the manufacturer's instructions (FITC Annexin V Apoptosis Detection Kit, BD Pharmingen). Cells were then stained with FITC Annexin V and PI for 15 minutes at room temperature in the dark. Annexin V-FITC detects translocation of […] from the inner to the out cell membrane during early apoptosis, and PI can enter the cells in late apoptosis or necrosis. Untreated cells were used as control for the double staining. The cells were analyzed immediately after staining using a Attune NXT instrument and FlowJo software. For each measurement, at least 20,000 cells were counted.

HCT116 p53 WT cells [2] = assay: Flow cytometric assay of apoptosis (Annexin V/PI); format: cell-based, human; conditions: 25 nM 5-FdU 24 h, at 48 h, both UDG expressing and UDG depleted cells
Description: as §1

DLD1 cells [3] = assay: Cell cycle and BrdU/PI labeling analysis; format: cell-based, human; conditions: for cell cycle progression (PI staining): 100 nM 5-FdU; for cell cycle profile (BrdU and PI co-staining): 100 nM 5-FdU 24 h
Description: For cell cycle analysis, DLD1 cells were synchronize by serum starvation for 48 h and released in fresh media for 16 h. The cells were then treated with 100 nM 5-FdU for 4, 8, 12, 20, 24, 28, 32, 36, 48, 72, and 96 h. At each time point, cells were harvested and fixed with methanol. Fixed cells were incubated with DNase-free RNaseA (Roche) and stained with 50 μg/mL PI solution (Sigma-Aldrich). For BrdU/PI labeling analysis, cells were treated with 100 nM 5-FdU for 24 h and pulsed with 10 μM BrdU (BD Biosciences Pharmingen, BrdU Flow Kit) for 45 minutes before collecting cells. According to manufacturer's instructions from BD Biosciences Pharmingen, cells were fixed, treated with DNAse for 1 h at 37° C., stained with FITC anti-BrdU for 20 minutes, and incubated with PI staining solution (50 μg/mL PI, 10 mM Tris-HCl pH 7.5, 5 mM MgCl2, 10 μg/mL DNase-free RNaseA) for 30 minutes at 37° C. For both assays, cells were analyzed on a BD LSRII instrument.

HCT116 p53 WT cells [4] = conditions: HCT116 p53 WT, shUDG vs shSCR
Description: (§3) p53 or UDG knockdown was achieved via shRNA transduction. Lentiviral vectors LV-THM-shp53 (which also expresses a GFP reporter) or LV-Bleo-shp53 to perform p53 KD in WT HCT116 cells were obtained from Case Western Reserve University, Cleveland, Ohio Lentiviral vector targeting GFP (sh-GFP) was used as control. UDG shRNA vectors (shUDG: NM_003362.2-656s21c1, shUDG-2: NM_003362.2-758s21c1, and shUDG-3: NM_003362.2-893s21c1) were purchased from Sigma, and a scramble targeting shRNA vector (Sigma) was used as paired control. The lentiviral production and infection were performed as previously described. Cells stably infected with LV-THM-p53 were isolated by cell sorting on the basis of their GFP expression.
as §2

p53 WT cancer lines = assay: Clonogenic survival assay, panel of p53 WT lines
Description: as §3, §2

DLD1 cells [5] = assay: LC-MS/MS of uracil and 5-FU incorporated in cellular DNA; conditions: 5-FdU 100 and 200 nM 48 h
Description: Genomic DNA was extracted from cells treated with 5-FdU via phenol-chloroform mixture. 80 μg of DNA sample was dissolved in 1×UDG reaction buffer (20 mM Tris-HCl, 1 mM EDTA and 1 mM dithiothreitol, pH 8.0) and incubated with UDG enzyme (1 μL, 5 units) for 1 h at 37° C. For LC-MS/MS analysis of DNA-incorporated uracil and 5-FU, 75 μL of the enzyme reaction mixture was obtained, and uracil-1,3-^15N2 was used as the internal standard (Sigma-Aldrich). All uracil and 5-FU standards, internal standard, and QC samples were prepared in 1×UDG reaction buffer. […] Quantitation of the analytes was accomplished by a AB Sciex API 3200 triple quadrupole tandem mass spectrometer (AB Sciex), which was operated in the negative multiple-reaction-monitoring (MRM) mode with mass transitions of m/z 110.8>42.0 for uracil, m/z 112.9>43.0 for uracil-1,3-^15N2 and m/z 129.0>42.0 for 5-FU. This method has lower limits of quantitation of 2.50 ng/mL and linear calibration ranges up to 500 ng/mL for both uracil and 5-FU with a sample injection volume of 15 μL, as well as a total analysis time of 6 min.

Description for DLD1 colon cancer cells: UDG knockdown was performed via shRNA transduction with validated clone from Sigma-Aldrich. […] A non-targeted scramble control shRNA clone (Sigma-Aldrich) was also used. Transfection of shRNA clones was performed according to manufacturer's specifications from Lipofectamine 2000 (Invitrogen). Lentiviral particles were produced via HEK293 cells, and targeted cells were infected and selected with puromycin. The stable UDG knockdown levels were verified for q-PCR and western blot analysis.
Colonies were stained with methylene blue, and only colonies containing ≥50 cells were counted. The percentage of survival was determined relative to untreated control averaged over 3 independent experiments.

O=c1[nH]c(=O)n([C@H]2C[C@H](O)[C@@H](CO)O2)cc1F [5-FdU, 5-fluorodeoxyuridine]
IC50 (A2780): 1.32 ± 0.33 nM
IC50 (A375): 111 ± 1.8 nM
level of uracil and 5-FU in UDG depleted cells relative to shSCR-transfected cells (DLD1 cells [1]; 100 nM 5-FdU 24 h): about three times higher
levels of AP sites (DLD1 cells [1]; shSCR-transfected cells): remained low
levels of AP sites (DLD1 cells [1]; shUDG-transfected cells, dose dependent): dramatic increase
cell death (Annexin V and PI positive) (HCT116 p53 KO cells; UDG depleted cells, 48 to 96 h): significantly elevated
cell death (Annexin V and PI positive) (HCT116 p53 KO cells; UDG expressing cells): significantly lower
cell death (Annexin V and PI positive) (HCT116 p53 WT cells [2]): significant cell death
cell cycle progression (PI staining) (DLD1 cells [3]; synchronized DLD1 UDG depleted, late G1 and early S phase, lasted 48 h): strong cell cycle arrest
cell cycle progression (PI staining) (DLD1 cells [3]; synchronized DLD1 shSCR, through S phase by 36 h): slowed the progression
cell cycle profile (BrdU and PI co-staining) (DLD1 cells [3]; unsynchronized DLD1 shSCR): S phase arrest especially at middle and late S phase
cell cycle profile (BrdU and PI co-staining) (DLD1 cells [3]; unsynchronized DLD1 shUDG): arrested at late G1 and early S phase
cell survival in shSCR-transfected cells (DLD1 colon cancer cells; DLD1 shSCR, high concentrations): moderate loss of cell viability
effect of UDG depletion on drug sensitivity (DLD1 colon cancer cells; DLD1 shUDG vs shSCR): highly sensitized
effect of UDG depletion on cytotoxicity (HCT116 p53 WT cells [4]): did not significantly affect
IC50 (p53 WT cancer lines; read-out: IC50 values, p53 WT cancer lines except A375): < 10 nM
effect of UDG depletion on cytotoxicity (p53 WT cancer lines; shUDG vs shSCR, p53 WT cell lines): did not alter the cytotoxicity
released uracil and 5-FU from genomic DNA (DLD1 cells [5]; shSCR-transfected cells): Very low levels
released uracil and 5-FU from genomic DNA (DLD1 cells [5]; shUDG-transfected cells): significant increase
